Laboratory results taken from patent US9012439B2, “Use of electrophilic compounds for inducing platelet production or maintaining platelet function” (University of Rochester, priority 2007, dated 2015).

Assays:
Meg-01 cells [1] = assay: Platelet production from Meg-01 cells (flow cytometry); type: cell-based, human; details: for platelet production / effect of antioxidant pretreatment on 15d-PGJ2-induced platelet production: Meg-01 cells; for platelet production: 10 μM, 24 h; for effect of antioxidant pretreatment on 15d-PGJ2-induced platelet production: 5 mM GSH-EE or 1 mM NAC for 2 h, then 15d-PGJ2 24 h
Method: Meg-01 and M07e cells were purchased from the American Type Culture Collection (Rockville, Md.) and Dami cells were a generous gift from Dr. Patricia J. Simpson-Haidaris (University of Rochester). All cells were cultured in RPMI-1640 tissue culture medium (Invitrogen) supplemented with 5% fetal bovine serum (FBS; Invitrogen), 10 mM HEPES (N-2-hydroxyethylpiperazine-N′-2-ethanesulfonic acid; Sigma), 2 mM L-glutamine (Invitrogen), 4.5 g/L glucose (Invitrogen), and 50 μg/mL gentamicin (Invitrogen). M07e cells were also supplemented with 100 ng/mL of granulocyte monocyte-colony stimulating factor (GM-CSF, R&D Systems). All treatments were performed in normal growth media. Dimethyl sulfoxide (DMSO) was used as a vehicle (control) in the experiments described below.
Platelets were isolated from megakaryocytes by centrifugation at 150 xg for 10 min. Supernatants underwent sequential centrifugation (500 xg for 10 min and 1000×g for 10 min). The remaining platelet pellet was fixed then permeabilized with a CD61 or CD41 antibody. 7-AAD (BD Pharmingen) was added for 10 min before analyzing the cells by flow cytometry. Platelets were identified using three well-described parameters (Patel et al., “The Biogenesis of Platelets from Megakaryocyte Proplatelets,” J Clin Invest 115:3348-3354 (2005); Breton-Gorius et al., “Expression of Platelet Proteins During the In Vitro and In Vivo Differentiation of Megakaryocytes and Morphological Aspects of Their Maturation,” Semin Hematol 23:43-67 (1986); Ogura et al., “Establishment of a Novel Human Megakaryoblastic Leukemia Cell Line, MEG-01, With Positive Philadelphia Chromosome,” Blood 66:1384-1392 (1985) and Franks et al., “A Fluorescence Microscopy Method for Quantifying Levels of Prostaglandin Endoperoxide H Synthase-1 and CD-41 in MEG-01 Cells,” Biol Proced Online 3:54-63 (2001), each of which is hereby incorporated by reference in its entirety), size (using normal human platelets as a control), presence of CD61 or CD41 and lack of DNA as determined by the absence of 7-AAD staining Ten thousand platelet events were collected and platelets were quantified by rate (platelet events/second) (Chung et al., “Platelet Activation in Acute, Decompensated Congestive Heart Failure,” Thromb Res 120:709-713 (2007), which is hereby incorporated by reference in its entirety.
A 19 by target sequence was selected to knock down PPARγ. PPARγ was cloned downstream of the RNA polymerase III U6 promoter and subcloned into a FG12 lentiviral vector which expresses green fluorescent protein (GFP) under the Ubiquitin C promoter. HEK 293 cells expressing this siRNA PPARγ had reduced PPARγ protein levels. To make the lentivirus, HEK 293 cells were co-transfected with 3 plasmids: the envelope vector (CMV-VSVG), the transfer vector (FG12-shRNAPPAR), and the packaging construct (pCMVΔ89.2 (gag/pol proteins)). Viral supernatants were collected every 8 h for 2 days and concentrated by ultracentrifugation at 50,000×g for 2 h at 4° C. using a Beckman SW 28 rotor. Viral titers were determined by infection of HeLa cells with serial dilutions of the viral stocks. Meg-01 cells were infected at a multiplicity of infection (MOI) of 20. After 48 h, approximately 56% of the PPARγ siRNA cells were transduced as determined by flow cytometry. The GFP positive (+) cells were then sorted by FACS and grown in RPMI with 5% FBS.

Meg-01 cells [2] = assay: Reactive oxygen species production in Meg-01 cells (carboxy-H2DCFDA, MitoSOX Red); type: cell-based, human; details: for effect of antioxidant pretreatment on 15d-PGJ2 ROS induction: Meg-01 cells, pretreatment before 15d-PGJ2; for percentage of Meg-01 cells that produce mitochondrial superoxide (MitoSOX Red): 10 μM
Method: Ten μM carboxy-H2DCFDA was added to cells for 20 min at RT. The cells were washed and immediately analyzed by flow cytometry. Five μM of MitoSOX Red dye in HBSS containing Mg^2+ and Ca^2+ was added to the cells for 15 min at 37° C. The cells were washed in HBSS and analyzed by flow cytometry.

[3] = tested on: primary human megakaryocytes; assay: Platelet production from human cord blood CD34+-derived megakaryocytes; type: cell-based; details: primary human megakaryocytes; 5 mM GSH-EE or 1 mM NAC for 2 h, then 15d-PGJ2 24 h
Method: Human CD34+ cord blood cells were obtained from the National Disease Research Interchange (NDRI, Philadelphia, Pa.). Cells were plated at 2.5×10^5 cells per well in a 12-well plate and cultured in serum-free medium as previously described (Zeuner et al., “Chemotherapy-induced Thrombocytopenia Derives from the Selective Death of Megakaryocyte Progenitors and Can Be Rescued by Stem Cell Factor,” Cancer Res 67:4767-4773 (2007), which is hereby incorporated by reference in its entirety) and supplemented with 100 ng/mL of rhTPO. After 14 days in culture, megakaryocytes were identified by staining with a CD61-FITC antibody and analyzed on a BD Biosciences FACSCalibur flow cytometer. Data were analyzed using FlowJo software (Treestar, Ashland, Oreg.). Cell images were captured using an inverted microscope (Olympus IX81). Platelets were isolated from megakaryocytes by centrifugation at 150 xg for 10 min. Supernatants underwent sequential centrifugation (500 xg for 10 min and 1000×g for 10 min). The remaining platelet pellet was fixed then permeabilized with a CD61 or CD41 antibody. 7-AAD (BD Pharmingen) was added for 10 min before analyzing the cells by flow cytometry. Platelets were identified using three well-described parameters (Patel et al., “The Biogenesis of Platelets from Megakaryocyte Proplatelets,” J Clin Invest 115:3348-3354 (2005); Breton-Gorius et al., “Expression of Platelet Proteins During the In Vitro and In Vivo Differentiation of Megakaryocytes and Morphological Aspects of Their Maturation,” Semin Hematol 23:43-67 (1986); Ogura et al., “Establishment of a Novel Human Megakaryoblastic Leukemia Cell Line, MEG-01, With Positive Philadelphia Chromosome,” Blood 66:1384-1392 (1985) and Franks et al., “A Fluorescence Microscopy Method for Quantifying Levels of Prostaglandin Endoperoxide H Synthase-1 and CD-41 in MEG-01 Cells,” Biol Proced Online 3:54-63 (2001), each of which is hereby incorporated by reference in its entirety), size (using normal human platelets as a control), presence of CD61 or CD41 and lack of DNA as determined by the absence of 7-AAD staining Ten thousand platelet events were collected and platelets were quantified by rate (platelet events/second) (Chung et al., “Platelet Activation in Acute, Decompensated Congestive Heart Failure,” Thromb Res 120:709-713 (2007), which is hereby incorporated by reference in its entirety.

[4] = tested on: primary human megakaryocytes; assay: Reactive oxygen species production in primary human megakaryocytes; type: cell-based; details: pretreatment before 15d-PGJ2
Method: Human CD34+ cord blood cells were obtained from the National Disease Research Interchange (NDRI, Philadelphia, Pa.). Cells were plated at 2.5×10^5 cells per well in a 12-well plate and cultured in serum-free medium as previously described (Zeuner et al., “Chemotherapy-induced Thrombocytopenia Derives from the Selective Death of Megakaryocyte Progenitors and Can Be Rescued by Stem Cell Factor,” Cancer Res 67:4767-4773 (2007), which is hereby incorporated by reference in its entirety) and supplemented with 100 ng/mL of rhTPO. After 14 days in culture, megakaryocytes were identified by staining with a CD61-FITC antibody and analyzed on a BD Biosciences FACSCalibur flow cytometer. Data were analyzed using FlowJo software (Treestar, Ashland, Oreg.). Cell images were captured using an inverted microscope (Olympus IX81). Ten μM carboxy-H2DCFDA was added to cells for 20 min at RT. The cells were washed and immediately analyzed by flow cytometry. Five μM of MitoSOX Red dye in HBSS containing Mg^2+ and Ca^2+ was added to the cells for 15 min at 37° C. The cells were washed in HBSS and analyzed by flow cytometry.

CCCCC[C@H](O)/C=C/[C@@H]1[C@H]2C/C(=C/CCCC(=O)O)O[C@H]2C[C@H]1O [PGI2]
platelet production (Meg-01 cells [1]): failed to enhance platelet production

CCCCC[C@H](O)/C=C/[C@H]1[C@H](O)CC(=O)[C@@H]1C/C=C\CCCC(=O)O [PGE2]
platelet production (Meg-01 cells [1]): failed to enhance platelet production

O=C(Nc1ccccc1)c1cc([N+](=O)[O-])ccc1Cl [GW9662]
blocking of 15d-PGJ2-enhanced platelet production (Meg-01 cells [1]; Meg-01 cells pre-treated 2 h with 100 nM GW9662, then 15d-PGJ2 24 h): not blocked

CCOC(=O)CNC(=O)[C@H](CS)NC(=O)CC[C@H](N)C(=O)O [GSH-EE, glutathione reduced ethyl ester, reference compound]
effect of antioxidant pretreatment on 15d-PGJ2 ROS induction (Meg-01 cells [2]): attenuated both ROS induction and platelet formation | effect of antioxidant pretreatment on 15d-PGJ2-induced platelet production (Meg-01 cells [1]): attenuate 15d-PGJ2-induced platelet production | effect of antioxidant pretreatment on 15d-PGJ2-induced platelet production [3]: attenuate 15d-PGJ2-induced platelet production | effect of antioxidant pretreatment on 15d-PGJ2 ROS induction [4]: attenuated both ROS induction and platelet formation

CCCCC[C@H](O)/C=C/[C@@H]1[C@@H](C/C=C\CCCC(=O)O)[C@@H](O)C[C@H]1O [PGF2α]
platelet production (Meg-01 cells [1]): failed to enhance platelet production

CC(=O)N[C@@H](CS)C(=O)O [NAC, N-acetylcysteine, reference compound]
effect of antioxidant pretreatment on 15d-PGJ2 ROS induction (Meg-01 cells [2]): attenuated both ROS induction and platelet formation | effect of antioxidant pretreatment on 15d-PGJ2-induced platelet production (Meg-01 cells [1]): attenuate 15d-PGJ2-induced platelet production | effect of antioxidant pretreatment on 15d-PGJ2-induced platelet production [3]: attenuate 15d-PGJ2-induced platelet production | effect of antioxidant pretreatment on 15d-PGJ2 ROS induction [4]: attenuated both ROS induction and platelet formation

CCCCC[C@H](O)/C=C/[C@H]1C(=O)C=C[C@@H]1C/C=C\CCCC(=O)O [PGJ2]
percentage of Meg-01 cells that produce mitochondrial superoxide (MitoSOX Red) (Meg-01 cells [2]; 1 h): 33% | percentage of Meg-01 cells that produce mitochondrial superoxide (MitoSOX Red) (Meg-01 cells [2]; 6 h): 25% | percentage of Meg-01 cells that express ROS (carboxy-H2DCFDA) (Meg-01 cells [2]; 1 h): 65% | percentage of Meg-01 cells that express ROS (carboxy-H2DCFDA) (Meg-01 cells [2]; 6 h): 76% | platelet production (Meg-01 cells [1]): enhanced Meg-01 platelet production
